Data on eight molecules can be found in article PMC5573408, “Pepcan-12 (RVD-hemopressin) is a CB2 receptor positive allosteric modulator constitutively secreted by adrenals and in liver upon tissue damage” (Scientific Reports, 2017).

Data set [1] concerns the target T1, hCB2 receptor (Homo sapiens, UniProt P34972). The experiment in a line: Equilibrium binding / displacement of fluorescent pepcan-F4 on CHO-K1-hCB2 cells. The settings on record: for Ki: 100 nM pepcan-F4. Further details: expressed in transfected cells; host or cells: CHO-K1. As for the experimental part:
The equilibrium dissociation constant (Kd value) of the fluorescein-labeled pepcan-12 derivative pepcan-F4 was determined using CHO-K1-hCB2 cells as previously described. Equilibrium saturation binding was determined experimentally, and maximal specific binding (saturation) was reached already at 5 min at 37 °C. Different concentrations of pepcans and 100 nM pepcan-F4 were incubated together with […] suspended in 200 μL of binding buffer in silanized plastic tubes, under shaking for 60 min at 37 °C. After centrifugation at 4 °C and washing with ice-cold binding buffer, the cells were resuspended in ice-cold PBS and transferred into 96-well black plates, where the fluorescence intensities were measured using a Tecan Farcyte reader (485 nm excitation/535 nm emission). The specific binding was determined after washing and subtracting the nonspecific fluorescence calculated in parallel experiments carried out in non-transfected CHO cells.

In data set [2] the target is T1, hCB2 receptor. Put plainly: Dissociation kinetics of [3H]CP55,940 by isotopic dilution. Format: binding. Further details: expressed in transfected cells. The conditions noted are these: 1 μM CP55,940 added to bound [3H]CP55,940 (0.5 nM), 300 nM pepcan-12. As for the experimental part:
Dissociation kinetics experiments were performed as described before. […] […] […] After the incubation time, membrane suspensions were rapidly filtered through a 0.1% polyethyleneimine presoaked 96-well microplate bonded with GF/B glass fiber filters and washed as described above.

Data set [3] has as its target T1, hCB2 receptor. The experiment in a line: Radioligand binding assays with [3H]CP55,940 and [3H]WIN55,212-2 on CHO-K1-hCB2 membranes. The settings on record: for Kb: pKB, ternary complex model; for enhancement of [3H]CP55,940 and [3H]WIN55,212-2 receptor binding: 100 nM and 1 μM. The arrangement: expressed in transfected cells; host or cells: CHO-K1. As to the method: After the incubation time, membrane suspensions were rapidly filtered through a 0.1% polyethyleneimine presoaked 96-well microplate bonded with GF/B glass fiber filters (UniFilter-96 GF/B, PerkinElmer Life Sciences) under vacuum and washed 12 times with 150 μL of ice-cold binding buffer Filters were added with 40 μL of MicroScint20 scintillation liquid, and radioactivity was measured with the Trilux top counter (PerkinElmer Life Sciences). Data were collected from 3–10 independent experiments, each performed in triplicate, and the nonspecific binding was subtracted. The results are expressed as a percentage of vehicle-treated samples.

The target of data set [4] is T1, hCB2 receptor. The experiment in a line: [35S]GTPγS assay on hCB2 membranes. It counts as biochemical. Further details: expressed in transfected cells; host or cells: CHO-K1. The settings on record: for EC50 / [35S]GTPγS assay Max. Effect: 2-AG, mean (95% CI). As to the method:
Assays were performed as previously described. Clean membranes expressing hCB2 were diluted in silanized plastic tubes with GTPγS binding buffer (50 mM Tris-HCl, 3 mM MgCl2, 0.2 mM EGTA and 100 mM NaCl at pH 7.4 supplemented with 0.5% fatty acid-free BSA) in the presence of 10 μM of GDP and 0.1 nM of [^35S]GTPγS. The mixture was kept on ice until the binding reaction was started by adding the vehicle or compounds. Non-specific binding was measured in presence of 10 μM GTPγS. The tubes were incubated at 30 °C for 90 min under shaking and then put on ice to stop the reaction. An aliquot (185 μL) of the reaction mixture was rapidly filtered through a 96-well microplate bonded with GF/B glass fibre filters previously pre-soaked with ice-cold washing buffer (50 mM of Tris-HCl pH 7.4 plus 0.1% fatty acid-free BSA). The filters were washed six times with 180 µL of washing buffer under vacuum. The radioactivity was measured after the addition of 45 µL of MicroScint20 scintillation cocktail. Specific binding was calculated by subtracting the residual radioactivity signal obtained in presence of an excess of GTPγS and the results were expressed as % of vehicle control.

Data set [5] deals with T1, hCB2 receptor. The experiment in a line: cAMP assay in CHO-K1-hCB2 cells (GloSensor). It counts as cell-based. The arrangement: expressed in transfected cells; host or cells: CHO-K1. The conditions noted are these: for EC50: 2-AG, mean (95% CI). As to the method:
cAMP assays were performed in CHO-K1-hCB2 stably transfected with the pGloSensorTM 22-F plasmid (Promega) as previously described. Briefly, cells were seeded in 96-well plate and after attachment the medium was replaced by 40 µL of equilibration medium (GloSensor™ cAMP Reagent diluted in 5% v v^−1 of CO2-independent medium plus 10% FBS). The plates were incubated for 2 h at RT in the dark. […] Chemiluminescence was monitored continuously starting from immediately after the addition and for 30 min (keeping the plate at RT and in the dark). Basal levels of chemiluminescence (cells plus IBMX and vehicle without forskolin) were subtracted to the measured values. Results were normalized by subtracting the residual cAMP production and expressed as % of vehicle control.
For orientation: cAMP levels reflect the balance of adenylyl cyclase and phosphodiesterase activity.

Several values for one entry are separate records, joined by “and”; a condition that tells them apart may be missing. Equal values may be shown once. No end group written: not given here.

T1 sequence (P34972 whole entry): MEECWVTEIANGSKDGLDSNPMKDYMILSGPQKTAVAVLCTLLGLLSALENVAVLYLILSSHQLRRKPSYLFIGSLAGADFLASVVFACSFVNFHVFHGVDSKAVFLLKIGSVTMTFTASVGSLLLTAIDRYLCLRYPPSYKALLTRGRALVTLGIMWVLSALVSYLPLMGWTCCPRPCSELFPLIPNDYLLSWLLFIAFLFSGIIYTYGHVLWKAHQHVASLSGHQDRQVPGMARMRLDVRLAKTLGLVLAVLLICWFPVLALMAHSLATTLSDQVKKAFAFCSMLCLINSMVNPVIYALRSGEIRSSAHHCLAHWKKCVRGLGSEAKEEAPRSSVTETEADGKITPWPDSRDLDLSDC

What is called Ki is a measure of affinity in units of concentration, obtained from inhibition or displacement. A lower Ki goes with higher affinity. In turn, HKLRVDPVNFKLLSH [Pepcan-15] yielded a Ki in data set [1] of 0.0778 ± 0.0082 µM.

On to RVDPVNFKLLSH [Pepcan-12], for which, in data set [2], the “Half-life (fast)” value is 0.844 (0.703 to 1.057) min and the “Half-life (slow)” value was 49.90 (29.3 to 169.3) min. In addition, the Ki in data set [1] is 0.0447 µM and ~0.05 µM. For the same molecule, the Kb in data set [3] ([3H]CP55,940 bound) is 0.0589 µM. This molecule showed a Kb in data set [3] ([3H]WIN55,212-2 bound) of 0.0537 µM.

Turning to SDLHAHKLRVDPVNFKLLSH [Pepcan-20], the Ki in data set [1] was greater than 10 µM.

As usually defined, the EC50 is the midpoint of the concentration-response curve. Low values mean an effect from little substance, high ones a need for much substance. Take `CCCCC/C=C\C/C=C\C/C=C\C/C=C\CCCC(=O)OC(CO)CO` [Pepcan 2-AG, 2-arachidonoyl glycerol]: the concentration for a half-maximal effect (EC50) turned out to be 0.0958 µM in data set [4] (pepcan-12 0 nM); 0.0649 µM in data set [4] (pepcan-12 10 nM); 0.0409 µM in data set [4] (pepcan-12 30 nM); 0.0354 µM in data set [4] (pepcan-12 100 nM); 0.0921 µM in data set [5] (pepcan-12 0 nM); 0.102 µM in data set [5] (pepcan-12 10 nM). The results for the EC50 in data set [5] (pepcan-12 30 nM) and in data set [5] (pepcan-12 100 nM) were 0.0251 µM and 0.0124 µM, respectively. The “[35S]GTPγS assay Max. Effect” value in data set [4] (pepcan-12 0 nM) was 235 (220–251) % of crtl; in data set [4] (pepcan-12 10 nM), 238 (221–251) % of crtl; in data set [4] (pepcan-12 30 nM) it was 254 (237–272) % of crtl; in data set [4] (pepcan-12 100 nM), 291 (265–318) % of crtl.

KLRVDPVNFKLLSH [Pepcan-14]: in data set [4] (no orthosteric ligand), the “effect on [35S]GTPγS binding in absence of agonist” value was “Lack of effects”. For the same molecule, the “effect on cAMP levels in absence of agonist” value in data set [5] (no orthosteric ligand) is reported as “Lack of effects”. In data set [3], the “enhancement of [3H]CP55,940 and [3H]WIN55,212-2 receptor binding” value is recorded as “weaker yet still significant effects”.

As to “SALSDLHAHKLRVDPVNFKLLSH [Pepcan-23, putative precursor of pepcan-12]”, in data set [3], the “enhancement of [3H]CP55,940 and [3H]WIN55,212-2 receptor binding” value is listed as “did not exhibit any receptor interaction”.

With “pepcan-F4: C-terminal fluorescence-labeled (fluorescein) pepcan-12 conjugate (RVDPVNFKLLSH; synthetic pepcan-12 (alpha-hemoglobin fragment)”, the Kd in data set [1] (specific saturation curve, read-out: apparent Kd for hCB2 receptors) is 0.123 ± 0.0412 µM.

HAHKLRVDPVNFKLLSH [Pepcan-17] yielded an inhibition constant Ki in data set [1] of 0.183 ± 0.0394 µM.
